# Bridge positions count the residues as written; N and C are the ends. Square brackets hold non-standard residues; d marks the D form. Ends that are not written are not given here. Peptide text beside a SMILES is read from it.
# Assays:
# white fat vasculature [1] = assay: Peptide and phage localization in tissues; format: in vivo; conditions: intravenous, ob/ob mice
# Protocol: (§1) Staining of formalin-fixed, paraffin-embedded mouse tissue sections was performed (Pasqualini & Rouslahti, 1996; Pasqualini et al., 2000). For phage-peptide immunolocalization, 10^10 TU of […] (SEQ ID NO:81)-phage or a control insertless phage was injected intravenously. Phage immunohistochemistry was performed using a rabbit anti-fd phage antibody (Sigma Chemicals, St. Louis, Mo.) used at 1:1,000 dilution and a secondary horseradish peroxidase (HRP)-conjugated antibody. Apoptosis was detected using standard TUNEL immunohistochemistry and an HRP-conjugated antibody. For in vivo peptide homing validation, stocks of 5-carboxyfluorescein (FITC)-conjugated […] (SEQ ID NO:81) or CARAC (SEQ ID NO:71) were chemically synthesized, cyclized using the terminal cysteines and HPLC-purified to >90% purity by Anaspec (San Jose, Calif.). Lyophilized peptides were dissolved in DMSO to a concentration of 20 mM. Ten μl of 1 mM peptide-FITC solution in PBS was injected 5 min prior to tissue extraction. For blood vessel localization, 10 μl of 2 mg/ml of rhodamine-conjugated lectin-I (RL-1102, Vector Laboratories, Burlingame, Calif.) was co-injected. All immunohistochemistry and FITC immunofluorescence images were captured using an Olympus IX70 microscope and digital camera setup (Melville, N.Y.).
# white fat vasculature [2] = assay: Peptide localization in tissues; format: in vivo, C57BL/6 mice
# Protocol: as §1
# [3] = Anti-obesity therapy, regular diet-fed old mice; design: species or system C57BL/6 mice; conditions: mouse, in vivo
# adipose tissue = assay: Histopathological analysis of tissues from treated mice; conditions: mouse, in vivo
# Protocol: as §1
# [4] = Injection into genetically obese mice; format: in vivo; conditions: not normal obese mice
# subcutaneous white fat = assay: In vivo phage library screening for fat-homing peptides; design: species or system ob/ob mice; conditions: mouse
# Protocol: In vivo phage-display screening of the CX7C library (C, cysteine; X, any amino acid) (Pasqualini et al., 2000; Arap et al., Nature Med. 8:121-127, 2002) for fat-homing peptides was performed (Pasqualini & Rouslahti 1996, Pasqualini et al., 2000). In each biopanning round, an adult ob/ob mouse was injected intravenously (tail vein) with 10^10 transducing units (TU) of the library. Phage (˜300 TU/g in round 1 increased to ˜10^4 TU/g in round 3) were recovered after 5 min of circulation by grinding subcutaneous white fat with a glass Dounce homogenizer, suspending the homogenate in 4° C. Dulbecco's Modified Eagle's medium (DMEM) containing proteinase inhibitors (DMEM-prin: 1 mM PMSF, 20 μg/ml aprotinin, and 1 μg/ml leupeptin) and washing with DMEM-prin. The lipid phase was discarded during the washes and only the solid-phase cellular material was used. Washed homogenates were incubated with host bacteria (log phase E. coli K91kan; OD600˜2). Bacterial cultures were plated onto Luria-Bertani agar plates containing 40 μg/ml tetracycline and 100 μg/ml kanamycin, incubated overnight at 37° C. and selected clones were bulk-amplified and used to precipitate phage for a subsequent round of biopanning. The sub-library amplified after the third round of panning was enriched for fat-specific binders using a subtraction step. […]
# prohibitin = target: T1, prohibitin (Mus musculus, UniProt P67778); assay: Adipose receptor identification by binding and immunoprecipitation
# T1 construct: from tissue; host or cells: mouse adipose tissue extract
# T1 sequence (P67778 2-272): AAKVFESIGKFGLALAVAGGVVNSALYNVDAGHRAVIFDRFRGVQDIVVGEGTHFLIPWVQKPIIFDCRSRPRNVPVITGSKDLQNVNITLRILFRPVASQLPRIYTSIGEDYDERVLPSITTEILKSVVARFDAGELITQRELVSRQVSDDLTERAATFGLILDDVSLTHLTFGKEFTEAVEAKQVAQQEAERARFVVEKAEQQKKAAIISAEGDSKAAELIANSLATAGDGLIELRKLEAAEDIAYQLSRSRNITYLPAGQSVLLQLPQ
# Protocol: A band of approximately 35,000 Daltons (35 kDa) was isolated from mouse adipose tissue extract that bound to […] (SEQ ID NO:81) conjugated to (KLAKLAK)2 (SEQ ID NO:1) (not shown). […] The 35 kDa band was analyzed by mass spectrometry, which identified three proteins present in the sample.
# The three proteins included predominately a B cell receptor associated protein (prohibitin), apolipoprotein E, and the voltage dependent anion channel (VDAC). Further studies were performed by immunoprecipitation, using either […] (SEQ ID NO:81) or CARAC (SEQ ID NO:71) conjugated to […] (SEQ ID NO:1) and precipitating with commercially available antibodies.
# [5] = system: patient's serum antibodies, anti-GRP78 antibody, anti-CNVSDKSC antibodies; assay: Cross-inhibition assay; format: binding, human; conditions: anti-GRP78 and anti-CNVSDKSC antibodies
# Protocol: Microtiter 96-well plates were coated with 10 μg/ml recombinant GRP78 (Stressgen) or GST attached to […] (SEQ ID NO:39) in 100 mM NaHCO3 overnight at 4° C., washed and then blocked with blocking buffer (2% milk, 1% casein, 0.05% Tween-20 in PBS) for 2 hours at 37° C. To determine the inhibitory activities of GRP78 or GST-[…] (SEQ ID NO:39), patient serum (1:50), anti-GRP78 (1:1000), and anti-GST-[…] (1:20) were incubated with GRP78 (50-100 μg) or GST-[…] (SEQ ID NO:39) (100-300 μg). The mixtures were incubated for 1 hour at 37° C. prior to adding to the coated wells. After 1 hour of incubation at room temperature the wells were washed several times with PBST buffer (0.05% Tween-20 in PBS). Secondary antibodies conjugated to horseradish peroxidase were added at 1:5000 dilution, incubated for 30 minutes at room temperature and washed five times with PBST buffer. Finally, the substrate 3,3′,5,5′-Tetramethylbenzidine (TMB; Calbiochem) was added and incubated for 15 minutes at room temperature before stopping the reaction by addition of 0.5M H2SO4. Absorbance at 450 nm was determined in an automated ELISA reader (Bio-Tek).
# [6] = system: bone marrow metastasis from a prostate cancer; assay: Immunohistochemical staining inhibition; design: species or system human; conditions: GRP78 staining of bone marrow metastasis
# Protocol: Paraffin sections (4 μm) were stained with purified biotinylated antibodies and peptide antibodies by immunoperoxidase detection using the Dako antigen retrieval kit and DAB (diaminobenzidine) as a substrate. All of the sections were counter-stained with hematoxylin. Purified IgGs were coupled to biotin and resolved by SDS-PAGE. The biotinylated immunopurified antibodies were used at a dilution of 1:60. Peptide C antibodies and purified pre-immune antibodies were used at 0.01 μg/μl. For the inhibition staining, peptide C antibodies were pre-incubated for 30 minutes at room temperature with the corresponding GST-peptide C (500 μg) prior to staining. For the GRP78 immunostaining, anti-GRP78 antibody (C-20) was used at 1:350 (Santa Cruz Biotechnology, Santa Cruz, Calif.). Peptide antibodies were generated in rabbits and purified using a T-gel immunoglobulin purification kit and protein G column (Pierce).
# KS1767 cells = assay: Targeted phage vector transduction and peptide inhibition in cell culture; format: cell-based, human; conditions: cells pre-incubated with synthetic peptide
# Protocol: (§2) Targeted phage vector transduction and specific inhibition by using synthetic peptides. MDA-MB-435 breast cancer and KS1767 Karposi's sarcoma cells were cultured on 8-well chamber glass slides. The culture media was replaced by 200 μl of MEM with 2% FCS and 5×10^10 TU of RGD-4C-β-gal, HWGF-β-gal, or fd-β-gal phage vectors (at 10^5 transducing units/cell in each case). Both cell lines express high levels of the integrin and MMP receptors for those targeting peptides. Phage were incubated with cells for 3 hr at 37° C., followed by a medium change to MEM plus 10% FCS. The cells were incubated for 72 hr at 37° C. to allow for β-gal gene expression. […]
# (§3) In the cell culture transduction assay, β-gal expression was analyzed by immunofluorescence. For quantification of expression in cell culture, the transduced cells were washed with PBS and permeabilized with 0.2% Triton X-100 for five minutes on ice, followed by blocking with 1% BSA in PBS. […] The degree of β-gal gene expression was determined by counting fluorescent cells in at least ten fields under an inverted microscope (Nikon, Japan). Quantification of the β-gal activity in cell culture was measured as relative light units (RLU) in a luminometer and then normalized to the amount of protein in micrograms, as determined by the Lowry method in a protein assay kit (Bio-Rad Protein Assay®; Hercules, Calif.). […]
# MDA-MB-435 cells = assay: as above; format: cell-based, human; conditions: cells pre-incubated with synthetic peptide
# Protocol: as §2, §3
molecule,measurement,setting,value
"CKGGRAKDC-FITC: 5-carboxyfluorescein (FITC)-conjugated cyclized CKGGRAKDC (disulfide 1-9 (inferred); also: FITC conjugate, site not given here)",localization to white fat vasculature,white fat vasculature [1],localized to and was internalized by cells of white adipose vasculature
same,localization to white fat vasculature,"white fat vasculature [2]; intravenous, C57BL/6 (leptin +/+) mice",specifically localized to blood vessels of subcutaneous and peritoneal white fat
same,co-localization with lectin-rhodamine in control tissue,white fat vasculature [2]; pancreatic tissue,No such co-localization was observed
CC(C)C[C@@H](NC(=O)[C@@H](CCCCN)NC(=O)CNC(=O)CNC(=O)[C@@H]1CSSC[C@H](N)C(=O)N[C@@H](CCCCN)C(=O)NCC(=O)NCC(=O)N[C@@H](CCCNC(=N)N)C(=O)N[C@@H](C)C(=O)N[C@@H](CCCCN)C(=O)N[C@@H](CC(=O)O)C(=O)N1)C(=O)N[C@H](C)C(=O)N[C@H](CCCCN)C(=O)N[C@H](CC(C)C)C(=O)N[C@H](C)C(=O)N[C@H](CCCCN)C(=O)N[C@H](CCCCN)C(=O)N[C@H](CC(C)C)C(=O)N[C@H](C)C(=O)N[C@H](CCCCN)C(=O)N[C@H](CC(C)C)C(=O)N[C@H](C)C(=O)N[C@H](CCCCN)C(=O)O (H-CKGGRAKDCGG[dK][dL][dA][dK][dL][dA][dK][dK][dL][dA][dK][dL][dA][dK]-OH; disulfide 1-9),toxicity,[3],No toxicity
same,abnormalities in other organs,adipose tissue,No abnormalities in other organs
same,mortality,[4],occasionally observed to result in mortality
CKGGRAKDC,share of all clones identified in the screen,subcutaneous white fat,4.5%
same,receptor identified,prohibitin; adipose tissue endothelial receptor,prohibitin
same,enrichment of prohibitin in precipitated fraction,prohibitin; compared to the CARAC precipitated fraction,over a ten-fold enrichment
GRP78: recombinant 78 kDa glucose regulated protein (Stressgen),blocking of antibody binding,[5],capable of blocking binding
same,inhibition of immunostaining,[6],staining was inhibited
CTTHWGFTLC (disulfide 1-10 (inferred)),inhibition of HWGF-β-gal phage transduction,KS1767 cells,greater than 90%
CDCRGDCFC (also: cyclized) [RGD-4C],inhibition of RGD-4C-β-gal phage transduction,MDA-MB-435 cells,greater than 99%
